Reference: patent US4935509A (priority 1989, dated 1990)

Assays:
COLO-320-DM = assay: MTT cell count (ID50), human colon cancer cell line COLO-320-DM; type: cell-based; settings: 144 h, read-out: ID50 COLO-320
Procedure: (§1) In the various assays set forth below the colorimetric determination of the number of cells was carried out by the following procedure using MTT.
(§2) 3-(4,5-dimethylthiazol-2-yl)-2,5-dipenyl tetrazolium bromide (MTT) was prepared as a 5 mg/ml stock solution in phosphate buffered saline, filtered through a 0.22 μm filter and stored for up to two weeks at 4° C. while protected from light. For use in the assay it was diluted to 1 mg/ml in a pH 7.2 solution of phenol-red-free RPMI 1640 tissue culture medium supplemented with 1 mM sodium pyruvate and 50 μg/ml gentamycin. The assay was done in flat bottomed 96-well microtiter plates. Culture medium was removed from the wells by inverting and blotting the plate, fifty μl of MTT solution was added to the cells in each well, and each plate was incubated at 37° C. in an atmosphere of 5% CO2 in air. After incubation, each plate was centrifuged for 5 minutes at 8000×g and excess MTT removed by inverting and blotting. Fifty μl of 95% ethanol was added to each well and the plate was shaken (speed 6.5 for 15 minutes) to solubilize the formazan in each well. The optical density of each well was measured using an automatic plate reader with a test wavelength of 570 nm and a reference wavelength of 630 nm.
(§3) The in vitro effects of the novel compounds as compared to vinblastine and vincristine on three human colon cancer cell lines and one non-transformedhuman cell line were determined by the following procedure.
(§4) The non-transformed human fibroblast cell line, WI-38 and two of the human colon cancer cell lines, COLO-320-DM and HT-29, were obtained from the American Type Culture Collection, Rockville, MD and the third human colon cancer cell line, OM-1, was supplied by E. I. du Pont de Nemours and Co., Inc., Glenholden, PA. Both OM-1 and COLO-320-DM cells were maintained by serial passage in RPMI 1640 tissue culture medium supplemented to 10% (v/v) with heat-inactivated FBS. HT-29 cells were similarly maintained in McCoys 5A tissue culture medium supplemented with 10% heat-inactivated FBS. COLO-320-DM cells were detached by gentle scraping while HT-29 and OM-1 cells were detached using 0.25% trypsin and 0.05% trypsin, 0.5 mM EDTA solutions respectively. All cultures were incubated at 37° C. in a humidified environment of 5% CO2 in air. Experiments were conducted in 96-well flat-bottomed plates. The initial cell seeds per well for each cell line were 4,000 for WI- 38; 2,000 for COLO-320-DM; 750 for HT-29; and 3,000 for OM-1, each in the appropriate tissue culture medium. Cells were plated 24 hours before test compound was added to allow cells to recover from the effects of physical scraping and trypsinization. Varying log10 dilutions of drug were added to triplicate sets of wells and cultures were incubated for 6 days at 37° in a humidified atmosphere of 5% CO2 in air. The number of cells per well at the end of the experiment was determined colorimetrically by the reduction of MTT as described above and the results for each compounds shown in Table II. For purposes of comparison, the concentration of each test compound required to reduce the final cell number to one-half of the number in drug-free control cultures (ID50) is shown in Table II.

OM-1 = assay: MTT cell count (ID50), human colon cancer cell line OM-1; type: cell-based; settings: 144 h, read-out: ID50 OM-1
Procedure: as §1, §2, §3, §4

HT-29 = assay: MTT cell count (ID50), human colon cancer cell line HT-29; type: cell-based; settings: HT-29, 144 h, read-out: ID50 HT-29
Procedure: as §1, §2, §3, §4

[1] = test system: P388 multiple-drug resistant cells; assay: cells; type: cell-based, murine; settings: for Fold-resistance: ID50 resistant cell line divided by ID50 wildtype cell line, 7200 min; for IC50: Mus musculus, P388, 120 h, read-out: ID50 P3/88/resist.
Procedure: as §1, §2
(§5) The differential in vitro activity of the above compounds as compared to vincristine and vinblastine with regard to P388 wild-type and P388 multiple-drug resistant leukemia was carried out by the following procedure.
(§6) Tissue culture-adapted lines of the P388 wild-type and P388 multiple-drug resistant cells (principally resistant to adriamycin) were obtained from the American Type Culture Collection, Rockville, MD. Experiments were conducted in 96-well microtiter plates with 300 cells from either line seeded in a volume of 200 μl of tissue culture medium (RPMI 1640 supplemented to 10% (v/v) with heat-inactivated fetal bovine serum (FBS) and to […] with 1-glutamine). Cells and varying log^10 dilutions of test compound were added to triplicate sets of wells on the same day and cultures were incubated for 5 days at 37° C. in a humidified atmosphere of 5% CO2 in air. The number of cells per well at the end of the experiment was determined colorimetrically by the reduction of MTT as described above.

WI-38 fibroblast = assay: MTT cell count (ID50), non-transformed human fibroblast cell line WI-38; type: cell-based; design: unit not given here; settings: 6 days incubation
Procedure: as §1, §2, §3, §4

P388 wild-type cells = assay: MTT cell count (ID50), P388 wild-type leukemia cells in vitro; type: cell-based, murine; settings: Mus musculus, P388, 120 h, read-out: ID50 P388/Wild
Procedure: as §1, §2, §5, §6

P388 leukemia [2] = assay: Increase in mean survival time of mice bearing P388 leukemia; type: in vivo; settings: i.p.; for Increase in MST: vs vehicle
Procedure: The efficacy of the remaining compounds is clearly documented by the fact that each increased the mean survival time of tumor-bearing mice in a dose-dependentmanner. […] The percent increase in mean survival time (MST) which appears in Table IV was calculated by the following formula: [formula]

[3] = In vivo effect against P388 leukemia in mice (TD50, ED50, T.I.); settings: mouse, in vivo, ip
From the text: (§7) The in vivo effect of the novel compounds of this invention against P388 leukemia as compared to vinblastine and vincristine, were compared by the following procedure.
(§8) P388 murine leukemia cells were obtained from Southern Research Institute, Birmingham, Ala., and were maintained by serial i.p. passage in C57BL/6 mice. Female (C57BL/6×DBA/2) F1 (BDF) mice of 6-8 weeks of age from Jackson Laboratories, Bar Harbor, Maine, received 1×10^6 P388 cells by i.p. inoculation on day 0. Compounds were dissolved in saline and administered i.p. to 10 tumor-bearing mice per dose level on days 0-4 and 7-9 using 5 to 10 log2 dilutions from a concentration known to be toxic. […] The therapeutic index (T.I.) for each compound was calculated by the formula: [formula]

P388 leukemia [4] = assay: as above; settings: for ED50: Mus musculus, P388, ip, read-out: ED50 (extrapolated values); for T.I. (therapeutic index): calculated from TD50 and ED50
From the text: as §7, §8

Compound | IC50 (COLO-320-DM) | IC50 (OM-1) | IC50 (HT-29) | Fold-resistance [1] | IC50 [1] | ID50 WI-38 fibroblast (WI-38 fibroblast) | IC50 (P388 wild-type cells) | Mean Survival Time (P388 leukemia [2]; 0.06 mg/kg (optimal dose), vehicle 10.1 days) | Increase in MST (P388 leukemia [2]; 0.06 mg/kg (optimal dose)) | LD50 [3] | ED50 (P388 leukemia [4]) | T.I. (therapeutic index) (P388 leukemia [4]) | Mean Survival Time (P388 leukemia [2]; 0.015 mg/kg (optimal dose), vehicle 10.7 days) | Increase in MST (P388 leukemia [2]; 0.015 mg/kg (optimal dose)) | Mean Survival Time (P388 leukemia [2]; 0.12 mg/kg (optimal dose), vehicle 9.6 days (A), 10.1 days (E)) | Increase in MST (P388 leukemia [2]; 0.12 mg/kg (optimal dose))
CC[C@]12C=CCN3CC[C@@]4(c5cc([C@@]6(C(=O)OC)C[C@H]7CN(CCc8c6[nH]c6ccccc86)C[C@H]6CCCC[C@H]67)c(OC)cc5N(C)[C@H]4[C@@](O)(C(=O)OC)[C@@H]1OC(C)=O)[C@@H]32 [C, (4aS,8aR,9R,11S)-15-[1,2,4,4a,5,6,7,8,8a,9,10,11,12,17-tetradecahydro-11-(methoxycarbonyl)-indolo(2',3':6,7,)azonino(1,2,3-bc)isoquinolin-11-yl]vindoline] | 400 nM | 400 nM | 300 nM | 4 | 850 nM | 5 × 10^-7 | 220 nM | 21.1 days | 109% | 0.1 mg/kg | 0.1 mg/kg | 1.0 |  |  |  | 
CC[C@]12C=CCN3CC[C@@]4(c5cc([C@@]6(C(=O)OC)C[C@H]7CN(CCc8c6[nH]c6ccccc86)C[C@H]6CCCC[C@H]67)c(OC)cc5N(C=O)[C@H]4[C@@](O)(C(=O)OC)[C@@H]1OC(C)=O)[C@@H]32 [D, (4aS,8aR,9R,11S)-15-[1,2,4,4a,5,6,7,8,8a,9,10,11,12,17-tetradecahydro-11-(methoxycarbonyl)-indolo(2',3':6,7,)azonino(1,2,3-bc)isoquinolin-11-yl]N-demethyl-N-formylvindoline] | 400 nM | 60 nM | 40 nM | 36 | 2000 nM | 4 × 10^-7 | 55 nM |  |  | 0.045 mg/kg | 0.043 mg/kg | 1.1 | 26.5 days | 148% |  | 
CC[C@]12C=CCN3CC[C@@]4(c5cc([C@@]6(C(=O)OC)C[C@H]7CN(CCc8c6[nH]c6ccccc86)Cc6ccccc67)c(OC)cc5N(C)[C@H]4[C@@](O)(C(=O)OC)[C@@H]1OC(C)=O)[C@@H]32 [A, (9R,11S)-15-[1,2,4,9,10,11,12,17-octahydro-11-(methoxycarbonyl)-indolo(2',3':6,7)azonino(1,2,3-bc)isoquinolin-11-yl]vindoline] | 400 nM | 400 nM | 30 nM | 4 | 400 nM | 4 × 10^-7 | 95 nM |  |  | 0.28 mg/kg |  | < 1 |  |  | 19.7 days | 105%
